Literature values as cited in patent US9241965B2, “Composition containing Prunus mume extract for external application to skin” (AMOREPACIFIC CORPORATION, priority 2010, dated 2016).

Target: T1, TRPV1 (Homo sapiens, UniProt Q8NER1)
T1 construct: endogenous in cells; host or cells: HaCAT cells
Details: skin temperature about 42° C.

T1 sequence (Q8NER1 whole entry, species assumed): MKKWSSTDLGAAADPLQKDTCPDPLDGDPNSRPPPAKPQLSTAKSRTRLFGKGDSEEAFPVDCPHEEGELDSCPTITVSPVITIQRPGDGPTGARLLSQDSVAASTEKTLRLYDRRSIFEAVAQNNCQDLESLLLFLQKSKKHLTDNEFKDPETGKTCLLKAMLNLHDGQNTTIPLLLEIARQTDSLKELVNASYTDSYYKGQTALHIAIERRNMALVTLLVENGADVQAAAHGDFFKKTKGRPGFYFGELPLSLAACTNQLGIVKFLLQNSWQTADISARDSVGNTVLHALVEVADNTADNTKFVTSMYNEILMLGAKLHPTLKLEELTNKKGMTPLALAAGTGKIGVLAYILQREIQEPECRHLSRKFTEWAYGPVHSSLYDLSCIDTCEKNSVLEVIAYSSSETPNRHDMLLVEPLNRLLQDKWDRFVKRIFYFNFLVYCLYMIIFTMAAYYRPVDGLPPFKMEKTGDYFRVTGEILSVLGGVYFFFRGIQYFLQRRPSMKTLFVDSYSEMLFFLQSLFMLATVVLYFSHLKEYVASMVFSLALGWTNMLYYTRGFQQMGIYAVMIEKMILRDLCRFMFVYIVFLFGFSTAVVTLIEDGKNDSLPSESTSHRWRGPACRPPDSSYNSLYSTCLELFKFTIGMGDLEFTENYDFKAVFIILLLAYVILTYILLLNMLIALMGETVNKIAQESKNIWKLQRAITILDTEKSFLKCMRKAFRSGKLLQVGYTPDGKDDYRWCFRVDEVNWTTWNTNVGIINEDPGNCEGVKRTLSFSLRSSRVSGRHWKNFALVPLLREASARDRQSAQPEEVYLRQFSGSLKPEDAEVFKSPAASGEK

## Oc1cc2c(cc1O)CN(C(=S)NCCc1ccc(Cl)cc1)CCC2 [capsazepine]
  rate of skin barrier recovery: restores the rate of skin barrier recovery to normal level
